Data from patent US5061721A (G. D. Searle & Co., priority 1990, dated 1991).

Legend:
Male Long-Evans rats = assay: Passive avoidance assay; assay type: in vivo, rat; settings: for Latency in Seconds in Passive Avoidance: saline 11.9; for Latency to enter box 24 hours after shock: n = 6
Source text: Subjects: Male Long-Evans rats weighing about 200 g (Sasco) were used. They were housed two per cage with ad lib food and water for the duration of the experiment.
Apparatus: The apparatus consisted of a plexiglass box (32×26×20 cm) with a lid with a floor of metal rods spaced 1.8 cm apart. The box was divided into two chambers, one painted black and the other gray. Two doors (12 cm high) were cut into the front of the box allowing access into each chamber.
A Y-shaped plexiglas runway was attached to the front of the box. The stem of the Y was 16 cm long and unpainted. The arms of the Y (14 cm long each) led to the two doors and each was painted the color of the chamber to which it led. The stem of the Y extended over the edge of the table on which the apparatus was placed, so that it was approximately 75 cm above the floor. The metal floor of the box was wired to a Lafayette shock generator so that a 0.5 mAmp shock could be delivered.
Procedure: On the first rest day, each rat was placed on the runway and allowed to enter one of the chambers. The door to this chamber was then closed, and the rat was then allowed to enter the other chamber. […] Sixty minutes later, each rat was again allowed to enter one chamber, where it received a footshock for 2 seconds. […] On the third test day, the rat is again placed on the runway and allowed to enter a chamber. On days two and three, each rat's latency to enter a chamber, and which chamber it entered, are recorded.

Rats = assay: Rewarded alternation of rats in a T-maze; assay type: in vivo, rat; settings: 3 mg/kg i.p.
Source text: Both groups learned the task in about 20 trials. Learning is defined as making 9 correct out of 10 consecutive choices. On the following day, the food reward was placed in the other arm of the maze (reversal).

[1] = target: T1, NMDA receptor-associated glycine recognition site (Glycine B receptor) (Rattus norvegicus, UniProt P35439); assay: TCP modulation assay (stimulation of [3H]TCP binding); assay type: biochemical; settings: in the presence of 0.6 μM glycine; basal binding 2583 ±381 DPM
T1 construct: synaptic plasma membranes (SPM) prepared from rat forebrain; tissue Sasco, St. Charles, Mo; (animals); host or cells: forebrain synaptic plasma membranes of 30-45 day old male Sprague-Dawley rats, Triton X-100 washed
Procedure: (§1) [^3 H]TCP binding was performed using Triton X-100 washed synaptic plasma membranes (SPM) prepared from rat forebrain (30-45 day old, male Sprague-Dawley; Sasco, St. Charles, Mo.) as described previously [J. W. Thomas, W. F. Hood, J. B. Monahan, P. C. Contreras and T. L. O'Donohue, Brain Res., 442, 396-398 (1988)]. […] The samples were then filtered though glass fiber filters (Schleicher and Schuell #32) which were pretreated with 0.05% (v/v) polyethylenimine. The filters were washed and the radioactivity quantitated by liquid scintillation spectrometry. […] The EC50 values for the stimulation of [^3 H]TCP binding were determined using a four parameter logistic regression analysis.

[2] = target: PCP site of the NMDA-PCP receptor complex; assay: [3H]TCP binding to synaptic plasma membranes under basal conditions; set-up: species or system rat
Procedure: as §1

[3] = glycine prodrug; cited from earlier work

Compound: C[C@@H](N)C(=O)O [D-alanine]
- Latency in Seconds in Passive Avoidance (Male Long-Evans rats; 534 mg/kg I.G.): 10.9 s

Compound: N[C@@H]1CONC1=O [D-cycloserine, 4-amino-3-isoxazolidone]
- Trials to learn the reversal (Rats; following day, saline about 32 trials): about 20 trials
- Trials to learn place learning task (9 correct out of 10 consecutive choices) (Rats; initial task): about 20 trials
- % of Saline Control Latency in Passive Avoidance (Male Long-Evans rats; 0.3 mg/kg i.p., post-shock): 160%
- % of Saline Control Latency in Passive Avoidance (Male Long-Evans rats; 0.3 mg/kg i.p., pre-retrieval): 105%
- % of Saline Control Latency in Passive Avoidance (Male Long-Evans rats; 0.3 mg/kg i.p., pre-shock): 152%
- % of Saline Control Latency in Passive Avoidance (Male Long-Evans rats; 3 mg/kg i.p., post-shock): 215%
- % of Saline Control Latency in Passive Avoidance (Male Long-Evans rats; 3 mg/kg i.p., pre-retrieval): 153%
- % of Saline Control Latency in Passive Avoidance (Male Long-Evans rats; 3 mg/kg i.p., pre-shock): 245%
- Latency to enter box 24 hours after shock (Male Long-Evans rats; 10 mg/kg i.p., drug after shock): 22.8 ± 2.4 s
- Latency to enter box 24 hours after shock (Male Long-Evans rats; 10 mg/kg i.p., drug before shock): 16.6 ± 3.0 s
- % of Saline Control Latency in Passive Avoidance (Male Long-Evans rats; 10 mg/kg i.p., post-shock): 153%
- % of Saline Control Latency in Passive Avoidance (Male Long-Evans rats; 10 mg/kg i.p., pre-retrieval): 180%
- % of Saline Control Latency in Passive Avoidance (Male Long-Evans rats; 10 mg/kg i.p., pre-shock): 138%
- % of Saline Control Latency in Passive Avoidance (Male Long-Evans rats; 20 mg/kg i.p., pre-retrieval): 100%
- Latency in Seconds in Passive Avoidance (Male Long-Evans rats; 60 mg/kg I.G.): 17.3 s

Compound: NCC(=O)O [Glycine]
- Maximum specific [3H]TCP binding [1]: 4712±779 DPM

Compound: c1csc(C2(N3CCCCC3)CCCCC2)c1 [[^3 H]TCP]
- Kd [2]: 44 nM

Compound: CCCCCNCC(N)=O [milacemide]
- Increase of whole brain content of glycine [3]: 30%
